Data on 1 compound can be found in US20250122218A1, “MODULATORS OF CYSTIC FIBROSIS TRANSMEMBRANE CONDUCTANCE REGULATOR” (Vertex Pharmaceuticals Incorporated, priority 2022, published 2025).

For this data set the following is noted: from C=CCCCc1nc(-c2nnc(C(CCC=C)(OCc3ccccc3)C(F)(F)F)o2)c(NC(=O)OC(C)(C)C)cc1C(F)(F)F; rcm bond; 14-membered ring; Grubbs II (22 mol%); toluene; 2.63 mM; 100.0 °C.

`CC(C)(C)OC(=O)Nc1cc(C(F)(F)F)c2nc1-c1nnc(o1)C(OCc1ccccc1)(C(F)(F)F)CCC=CCCC2` (mixture of isomers) showed a ring closure, isolated yield of 39%.
